# Several values for one entry are separate records, joined by “and”; a condition that tells them apart may be missing. Equal entries are not always repeated. Where two headings read alike, the source gives them in different places.
# How the values were obtained:
# Type in all cases: cell-based
# [1] = system: K-RasG12V (Rluc8-/GFP2-tagged) in HEK-293 EBNA cells; assay: K-RasG12V nanoclustering-BRET assay
# [2] = system: H-RasG12V (Rluc8-/GFP2-tagged) in HEK-293 EBNA cells; assay: H-RasG12V nanoclustering-BRET assay
# [3] = system: c-MYC in MDA-MB-231 cells; assay: Western blot of c-MYC expression; conditions: 24 h
# [4] = system: pERK/ERK in MIA PaCa-2 cells; assay: Western blot of MAPK signaling output (pERK/ERK)
# MDA-MB-231 cells = assay: 2D cell viability assay (alamarBlue), MDA-MB-231; conditions: MDA-MB-231, 72 h
# MIA PaCa-2 cells = assay: 2D cell viability assay (alamarBlue), MIA PaCa-2; conditions: MIA PaCa-2, 72 h
# HEK-293 EBNA cells = assay: 2D cell viability assay (alamarBlue), HEK-293 EBNA; conditions: 72 h
# [5] = system: caspase-3/7 activity in MDA-MB-231 cells; assay: Caspase-3/7Glo assay; conditions: 24 h
# Excerpt: Negative values (shaded red) indicate sensitivity of the cell line proliferation to the knockdown of shown genes, whereas positive scores (shaded blue) indicate insensitivity. (B) IC50 values for indicated compounds in Ras pathway mutant cell lines NCI-H358, MDA-MB231 and A375 grown as 3D spheroids under serum free conditions. […] Statistical comparisons were done using the average values across all three cell lines. […] Positive scores indicate synergistic drug interactions whereas negative scores would denote antagonistic drug interactions. A score of zero would indicate no antagonistic or synergistic effect. (D) Flow cytometric analysis of apoptosis in MDA-MB-231 cells. […] Benzethonium chloride and DMSO treated cells were used as positive and negative controls, respectively, for setting the gates. Percentage of total apoptotic cells (early and late stage) from two biological repeats (mean ± SD) is presented. Statistical analysis was performed using Fisher’s exact test comparing the total number of viable and apoptotic cells from two biological repeats. (E) Effect of inhibitors on cellular apoptosis studied using Caspase-3/7Glo assay. […] The caspase-3/7 activity was measured as a luminescence read-out and normalized to the vehicle control, 0.05% (v/v) DMSO. […] GAPDH detection was used as loading control.
# [6] = compounds 20 μM, FTI-277 1 μM, OphA 2.5 μM, 24 h, mean
smiles,measurement,setting,value
FC(F)(F)c1ccc2c(c1)N(CCCN1CCN(CCCl)CC1)c1ccccc1S2 [fluphenazine mustard],effect on the RasG12V-BRET signals (in words),[1]; K-RasG12V and H-RasG12V biosensors,even stronger effect than CMZ
same,DSS3 BRET score,"[1]; K-RasG12V nanoclustering-BRET dose response (0.1–80 μM; OphA 0.3–20 μM), replicates",17.9 and 3.8 and 4.3 and 7 and 12.9
same,DSS3 BRET score,"[1]; K-RasG12V nanoclustering-BRET, mean",9.18
same,K-RasG12V BRET,[1]; [6],72.64
same,DSS3 BRET score,"[2]; H-RasG12V nanoclustering-BRET dose response (0.1–80 μM; OphA 0.3–20 μM), replicates",13.1 and 5.3 and 9.9 and 9.6
same,DSS3 BRET score,"[2]; H-RasG12V nanoclustering-BRET, mean",9.48
same,H-RasG12V BRET,[2]; [6],65.64
same,c-MYC/Vinculin relative expression,"[3]; 10 μM, MDA-MB-231, replicates N1-N4",0.7502 and 0.7758 and 0.7975 and 1.298
same,c-MYC/Vinculin relative expression,"[3]; 10 μM, Mean (DMSO 1.78)",0.91
same,c-MYC/Vinculin relative expression,"[3]; 20 μM, MDA-MB-231, replicates N1-N4, values marked * excluded",1.798* and 1.478 and 1.405 and 0.9115
same,c-MYC/Vinculin relative expression,"[3]; 20 μM, Mean (DMSO 1.48)",1.26
same,normalized pERK/ERK ratio %,[4],46.7324% and 34.232% and 39.0258%
same,normalized pERK/ERK ratio %,"[4]; MIA PaCa-2 + EGF, same treatments, mean",40%
same,2D monolayer DSS3,MDA-MB-231 cells; Mean,32.27
same,2D monolayer DSS3,MDA-MB-231 cells; replicates N1-N3,27.5 and 31.9 and 37.4
same,2D monolayer DSS3,MIA PaCa-2 cells; Mean,65.73
same,2D monolayer DSS3,MIA PaCa-2 cells; replicates N1-N3,64.1 and 65.3 and 67.8
same,2D monolayer DSS3,HEK-293 EBNA cells; Mean,5.4
same,2D monolayer DSS3,HEK-293 EBNA cells; replicates N1-N3,6.1 and 5.1 and 5
CN[C@@H]1C[C@H]2O[C@@](C)([C@@H]1OC)n1c3ccccc3c3c4c(c5c6ccccc6n2c5c31)C(=O)NC4 [staurosporine],caspase 3/7 activity (fold change),"[5]; DT-061 5 μM, calmidazolium 5 μM, combination 5 μM each, staurosporine 1 μM, normalized to DMSO, replicates",5.7754 fold change and 5.5715 fold change and 6.4904 fold change and 6.254 fold change
same,caspase 3/7 activity (fold change),"[5]; same treatments, mean",6.02 fold change

# From PMC9135253, “Potential of phenothiazines to synergistically block calmodulin and reactivate PP2A in cancer cells” (PLoS ONE, 2022)
